In article PMC9295122, “Sialic Acid Derivatives Inhibit SiaT Transporters and Delay Bacterial Growth” (ACS Chemical Biology, 2022):
Entries after “also recorded” stand apart in the source; their conditions may differ.

System: E. coli JW3193 ΔNanT expressing SaSiaT
Assay: Growth of E. coli JW3193 ΔNanT expressing SaSiaT
Format: cell-based, Escherichia coli
Conditions: for effect on growth on sialic acid: 0.5 mM sialic acid + 1 mM inhibitor; for growth with inhibitor as only carbon source: 1 mM inhibitor
Description: To further investigate bacterial growth inhibition, we employed a model system of E. coli JW3193 ΔNanT expressing the SaSiaT and PmSiaT transporters. We designed these experiments to test if compounds 3e and 3f could inhibit the Neu5Ac transport in vivo because, without an active sialic acid transporter, E. coli JW3193 ΔNanT cannot grow on Neu5Ac.[16],[21]
For the bacterial growth experiments, the pJ422-01 plasmid containing the relevant SiaT or NanT gene was transformed into the E. coli JW3193 ΔnanT strain.[21] Throughout the experiments, strains containing the pJ422-01 plasmid were grown in media supplemented with 25 μg/mL Zeocin. E. coli BW25113, empty E. coli JW3193, and E. coli JW3193 with pJ422-01 containing the NanT gene were also used as controls. Strains were initially plated out from glycerol stocks before a single colony was picked and grown overnight in low salt LB media at 37 °C, with shaking at 180 rpm. Overnight cultures were diluted to an OD600 of 0.05 using low salt LB [supplemented with 1 mM isopropyl β-D-1-thiogalactopyranoside (IPTG)], before they were incubated at 37 °C, with shaking at 250 rpm, until they reached an OD600 of 0.3. At this point, 5 mL of each culture was centrifuged at 6000g for 5 min at 25 °C. The supernatants were removed and the cell pellets were resuspended in 5 mL of M9 MM without glucose prior to being centrifuged again at 6000g for 5 min at 25 °C. This wash step was repeated twice more before cells were resuspended to an OD600 of 0.5 in M9 MM without glucose. A Corning Costar Flat Bottom 96 Well TC-treated microplate was set up with 180 μL of M9 MM containing 1 mM IPTG (for the pJ422-01 strains) and either 5 mM glucose, 0.5 mM sialic acid, and 0.5 mM sialic acid with 1 mM of either inhibitor, or 1 mM of either inhibitor as a carbon source. To the 180 μL of media, 20 μL of each culture were added to the plate (OD600 of 0.05), before it was loaded into a FLUOstar Omega microplate reader (BMG Labtech). Growth was recorded at 600 nm every 10 min at 37 °C, with shaking at 300 rpm. Growth curves represent the mean and standard deviation of measurement from triplicate measurements (glucose/no carbon source in duplicate).
Fig. S5. Growth of E. coli JW3193 ΔNanT expressing the SaSiaT and PmSiaT transporters from a plasmid and using various carbon sources and in the presence or absence of inhibitors, 3e and 3f. (A) SaSiaT is expressed from a plasmid in the E. coli strain JW3193 ΔNanT, where the native sialic acid transporter (NanT) is deleted. The strain grows normally when in media with glucose (black line). There is no growth in the absence of any carbon source (grey line). In the presence of sialic acid at 0.5 mM the strain grows to an OD of ~0.5 (red line), showing that the transporter is functional. There is no growth in the […]

| Compound | effect on growth on sialic acid | growth with inhibitor as only carbon source |
| --- | --- | --- |
| CC(=O)NC1C(OCc2cc(F)cc(F)c2)CC(O)(C(=O)O)OC1C(O)C(O)CO (stereo not shown) [Compound 3e] | no effect on growth; also recorded: neither inhibitor seemed to alter bacterial growth | no growth |
| CC(=O)NC1C(OCc2cc(Br)cc(Br)c2)CC(O)(C(=O)O)OC1C(O)C(O)CO (stereo not shown) [Compound 3f] | no effect on growth; also recorded: neither inhibitor seemed to alter bacterial growth | no growth |
